# Measured values as given in US4689345A, “Oxygenated alkyl substituted bicyclo alkanes” (CBD Corporation, priority 1986, dated 1987).
# Entries after “also recorded” stand apart in the source; their conditions may differ. Like-named read-outs stand apart in the source and are kept apart here.
# Columns and labels:
# androgen receptor [1] = experiment: Androgen receptor inhibition, Actinomyces; assay type: binding
# estrogen receptor [2] = experiment: Estrogen receptor inhibition, Blastomyces; assay type: binding
# androgen receptor [3] = experiment: Androgen receptor inhibition, Torulopsis; assay type: binding
# estrogen receptor [4] = experiment: Estrogen receptor inhibition, Actinomyces; assay type: binding
# progesterone receptor [5] = experiment: Progesterone receptor inhibition, Norcardia; assay type: binding
# estrogen receptor [6] = experiment: Estrogen receptor inhibition, Cryptococci; assay type: binding
# progesterone receptor [7] = experiment: Progesterone receptor inhibition, Coccodia; assay type: binding
# progesterone receptor [8] = experiment: Progesterone receptor inhibition, Cryptococci; assay type: binding
# progesterone receptor [9] = experiment: Progesterone receptor inhibition, Fulsarium gravarium; assay type: binding
# Text: (§1) In the second series of experiments using the compound of the invention 2-(5-hydroxyhept-1-yl) bicyclo[3.3.0]octan-7-one {hexahydro-4-(5-hydroxyheptyl)-2-(1H)-pentalenone} upon zeralenone and zearalanol production, zearalenone and zearalanol were chemically obtained from Sigma Chemical Co., St. Louis, Mo.
# androgen receptor [10] = experiment: Androgen receptor inhibition, Cryptococci; assay type: binding
# progesterone receptor [11] = experiment: Progesterone receptor inhibition, Blastomyces; assay type: binding
# estrogen receptor [12] = experiment: Estrogen receptor inhibition, Candida; assay type: binding
# estrogen receptor [13] = experiment: Estrogen receptor inhibition, Trichophyton; assay type: binding
# Saccharomyces cerevisiae = experiment: Fermentation: ethanol production; assay type: cell-based
# androgen receptor [14] = experiment: Androgen receptor inhibition, Fusarium calorum; assay type: binding
# Text: as §1
# androgen receptor [15] = assay type: binding; conditions: Histoplasma
# progesterone receptor [16] = experiment: Progesterone receptor inhibition, Sporotrichum; assay type: binding
# progesterone receptor [17] = experiment: Progesterone receptor inhibition, Candida; assay type: binding
# androgen receptor [18] = experiment: Androgen receptor inhibition, Fulsarium gravarium; assay type: binding
# Text: as §1
# fungal infections = experiment: Efficacy studies and toxicity studies
# Text: At the present time, therapies for fungal infections are not satisfactory and are frequently dangerous.
# progesterone receptor [19] = experiment: Progesterone receptor inhibition, Trichophyton; assay type: binding
# androgen receptor [20] = experiment: Androgen receptor inhibition, Coccodia; assay type: binding
# progesterone receptor [21] = experiment: Fungal progesterone receptor inhibition, Fusarium; assay type: binding
# androgen receptor [22] = experiment: Androgen receptor inhibition, Saccharomyces cerevisiae strains; conditions: DHT:anti-androgen 1:1,000
# estrogen receptor [23] = assay type: binding, Histoplasma
# estrogen receptor [24] = experiment: Estrogen receptor inhibition, Norcardia; assay type: binding
# [25] = tested on: fungal androgen receptors; experiment: Fungal androgen receptor inhibition, Fusarium; assay type: binding
# Text: as §1
# androgen receptor [26] = experiment: Androgen receptor inhibition, Candida; assay type: binding
# progesterone receptor [27] = experiment: Progesterone receptor inhibition, Torulopsis; assay type: binding
# [28] = tested on: estrogen receptor (keloid cytosol); experiment: Keloid cytosol steroid binding assay, estrogen; set-up: species or system human
# estrogen receptor [29] = experiment: Estrogen receptor inhibition in skin/tissue fibroblast lines; assay type: cell-based, human; conditions: DHT:compound 1:1,000; for interference with / inhibition of estrogen receptors: more than 400 experiments
# Procedure: Explants of both normal and keloid skin and tissue fibroblast lines were established.
# Hormonal receptor analyses on these tissues were performed by the method of Griffith et al., Journal of Clinical Investigation, Vol. 57, page 1340 (1978).
# [30] = tested on: collagen:elastin formation; experiment: Collagen synthesized and elastic increase compared to control, by patient; assay type: cell-based, human; conditions: anti-androgen to DHT 1,000:1
# hard fibrous band = experiment: Hard fibrous band formation around breast implants following augmentation surgery; set-up: species or system human
# Text: "Hard fibrous band" formation was retarded around breast implants following augmentation surgery.
# [31] = target: T1, progesterone receptor (keloid cytosol) (Homo sapiens, UniProt P06401); experiment: Keloid cytosol steroid binding assay, progesterone
# T1 construct: [3H]promegestone (R5020) tracer
# [32] = tested on: androgen binding sites in a melanoma; experiment: Blocking of androgen binding sites in a melanoma; conditions: 1:1000 of dihydrotestosterone to the tested compound
# T1 sequence (P06401 whole entry): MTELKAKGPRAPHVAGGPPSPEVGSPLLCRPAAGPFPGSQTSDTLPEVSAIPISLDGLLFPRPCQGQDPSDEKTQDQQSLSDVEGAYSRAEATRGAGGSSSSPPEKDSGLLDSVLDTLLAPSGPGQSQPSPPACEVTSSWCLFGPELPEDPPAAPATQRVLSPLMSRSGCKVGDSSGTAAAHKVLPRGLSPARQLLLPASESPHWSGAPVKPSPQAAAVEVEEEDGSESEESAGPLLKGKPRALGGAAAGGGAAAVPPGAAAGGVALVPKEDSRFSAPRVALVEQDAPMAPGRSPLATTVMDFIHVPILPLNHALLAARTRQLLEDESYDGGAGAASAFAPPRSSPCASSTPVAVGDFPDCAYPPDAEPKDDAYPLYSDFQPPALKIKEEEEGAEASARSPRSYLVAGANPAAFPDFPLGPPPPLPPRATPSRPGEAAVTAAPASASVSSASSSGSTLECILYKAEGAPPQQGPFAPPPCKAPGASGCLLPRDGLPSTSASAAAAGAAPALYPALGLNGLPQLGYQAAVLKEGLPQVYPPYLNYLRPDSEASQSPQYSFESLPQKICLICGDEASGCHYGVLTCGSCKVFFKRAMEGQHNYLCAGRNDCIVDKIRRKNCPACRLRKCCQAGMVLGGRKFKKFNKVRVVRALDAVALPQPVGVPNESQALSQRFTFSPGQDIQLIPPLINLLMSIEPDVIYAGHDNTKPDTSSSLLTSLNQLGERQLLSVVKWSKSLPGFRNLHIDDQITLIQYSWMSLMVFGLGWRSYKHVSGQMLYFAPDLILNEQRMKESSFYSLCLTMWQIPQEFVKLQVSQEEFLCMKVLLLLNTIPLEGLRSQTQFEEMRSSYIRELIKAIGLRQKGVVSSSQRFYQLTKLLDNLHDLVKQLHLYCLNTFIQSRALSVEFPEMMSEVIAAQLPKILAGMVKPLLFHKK
compound,measurement,setting,value
CCC(O)CCCCC1CCC2CC(=O)CC12 (centres unmarked) [Compound IV],% Androgen Receptor Inhibition,androgen receptor [1],90%
same,% Estrogen Receptor Inhibition,estrogen receptor [2],0%
same,% Androgen Receptor Inhibition,androgen receptor [3],77%
same,% Estrogen Receptor Inhibition,estrogen receptor [4],0%
same,% Progesterone Receptor Inhibition,progesterone receptor [5],0%
same,% Estrogen Receptor Inhibition,estrogen receptor [6],0%
same,% Progesterone Receptor Inhibition,progesterone receptor [7],4%
same,% Progesterone Receptor Inhibition,progesterone receptor [8],4%
same,% Progesterone Receptor Inhibition,progesterone receptor [9]; DHT:anti-androgen 1:1,1%
same,% Progesterone Receptor Inhibition,progesterone receptor [9]; DHT:anti-androgen 1:10,3%
same,% Progesterone Receptor Inhibition,progesterone receptor [9]; DHT:anti-androgen 1:100,6%
same,% Progesterone Receptor Inhibition,"progesterone receptor [9]; DHT:anti-androgen 1:1,000",4%
same,% Androgen Receptor Inhibition,androgen receptor [10],76%
same,% Progesterone Receptor Inhibition,progesterone receptor [11],3%
same,% Estrogen Receptor Inhibition,estrogen receptor [12],0%
same,% Estrogen Receptor Inhibition,estrogen receptor [13],0%
same,depression of ethanol production,Saccharomyces cerevisiae; other strains,one-eighth its normal rate
same,increase of ethanol production,Saccharomyces cerevisiae; some strains,as much as three times the natural rate
same,% Androgen Receptor Inhibition,androgen receptor [14]; DHT:anti-androgen 1:1,29%
same,% Androgen Receptor Inhibition,androgen receptor [14]; DHT:anti-androgen 1:10,37%
same,% Androgen Receptor Inhibition,androgen receptor [14]; DHT:anti-androgen 1:100,79%
same,% Androgen Receptor Inhibition,"androgen receptor [14]; DHT:anti-androgen 1:1,000",90%
same,% Androgen Receptor Inhibition,androgen receptor [15],47%
same,% Progesterone Receptor Inhibition,progesterone receptor [16],7%
same,% Progesterone Receptor Inhibition,progesterone receptor [17],7%
same,% Androgen Receptor Inhibition,androgen receptor [18]; DHT:anti-androgen 1:1,26%
same,% Androgen Receptor Inhibition,androgen receptor [18]; DHT:anti-androgen 1:10,49%
same,% Androgen Receptor Inhibition,androgen receptor [18]; DHT:anti-androgen 1:100,67%
same,% Androgen Receptor Inhibition,"androgen receptor [18]; DHT:anti-androgen 1:1,000",87%
same,efficacy studies,fungal infections,efficacious
same,toxicity studies,fungal infections,safe
same,% Progesterone Receptor Inhibition,progesterone receptor [19],7%
same,% Androgen Receptor Inhibition,androgen receptor [20],67%
same,% Progesterone Receptor Inhibition,progesterone receptor [21]; fungal hormone Zeralanol,0%
same,% Progesterone Receptor Inhibition,progesterone receptor [21]; fungal hormone Zeralenone,0%
same,% Androgen Receptor Inhibition,androgen receptor [22]; strain 1,16%
same,% Androgen Receptor Inhibition,androgen receptor [22]; strain 2,37%
same,% Androgen Receptor Inhibition,androgen receptor [22]; strain 3,92%
same,% Androgen Receptor Inhibition,androgen receptor [22]; strain 4,76%
same,% Androgen Receptor Inhibition,androgen receptor [22]; strain 5,39%
same,% Androgen Receptor Inhibition,androgen receptor [22]; strain 6,59%
same,% Androgen Receptor Inhibition,androgen receptor [22]; strain 7,87%
same,% Estrogen Receptor Inhibition,estrogen receptor [23],0%
same,% Estrogen Receptor Inhibition,estrogen receptor [24],0%
same,fungal androgen receptors blocked,"[25]; DHT:compound 1:1,000",9-83%
same,% Androgen Receptor Inhibition,[25]; fungal hormone Zeralanol,84%
same,% Androgen Receptor Inhibition,[25]; fungal hormone Zeralenone,79%
same,blocking of interaction of fungal hormone and its hormonal receptors,"[25]; hormone:anti-androgen 1:1 to 1:1,000",26-90%
same,% Androgen Receptor Inhibition,androgen receptor [26],92%
same,% Progesterone Receptor Inhibition,progesterone receptor [27],6%
"CCC(CCCCC1CCC2CC(=O)CC12)OC (centres unmarked) [Compound V, 2-(5-Methoxyhept-1-yl)bicyclo[3.3.0]octan-7-one]",effect on binding of estrogen,[28],no effect
same,interference with / inhibition of estrogen receptors,estrogen receptor [29],without significant interference
same,interference with / inhibition of estrogen receptors,estrogen receptor [29]; listed as 2-(5-methoxyhept-1-yl)bicyclo[3.3.0]octan-7-one,None of the tests showed any measurable estrogen receptor inhibition; also recorded: without significant interference
same,% Estrogen Receptor Inhibition,estrogen receptor [29]; forearm,0%
same,% Estrogen Receptor Inhibition,estrogen receptor [29]; keloid,0%
same,% Estrogen Receptor Inhibition,"estrogen receptor [29]; keloid, listed as 2-(5-methoxyhept-1-yl)bicyclo[3.3.0]octan-7-one",no measurable
same,% Estrogen Receptor Inhibition,estrogen receptor [29]; scalp,0%
same,Fold Elastic Increase Compared to Control,[30]; patient 1,1.4 Fold
same,Fold Elastic Increase Compared to Control,[30]; patient 2,4.7 Fold
same,Fold Elastic Increase Compared to Control,[30]; patient 3,2.0 Fold
same,Fold Elastic Increase Compared to Control,[30]; patient 4,4.0 Fold
same,Fold Elastic Increase Compared to Control,[30]; patient 5,6.0 Fold
same,Fold Elastic Increase Compared to Control,[30]; patient 6,2.0 Fold
same,Fold Elastic Increase Compared to Control,[30]; patient 7,3.0 Fold
same,Fold Elastic Increase Compared to Control,[30]; patient 8,3.0 Fold
same,Fold Elastic Increase Compared to Control,[30]; patient 9,4.0 Fold
same,Fold Elastic Increase Compared to Control,[30]; patient 10,6.0 Fold
same,Fold Elastic Increase Compared to Control,[30]; patient 11,3.0 Fold
same,hard fibrous band formation around breast implants,hard fibrous band,retarded
same,effect on binding of progesterone,[31],no effect
same,block of androgen binding sites in a melanoma,[32],59-80%
